Measurements published in patent US20090291964A1, “Potentiators of Antibacterial Activity” (priority 2003, published 2009).
Where two headings read alike, the source gives them in different places.

Key:
Format in all cases: cell-based
[1] = test system: S. aureus clinical isolates; test: MIC90 studies: fluoroquinolone susceptibility of clinical isolate panel with EPI; details: Staphylococcus aureus
Experimental: (§1) Susceptibility studies with large panels of resistant clinical isolates were performed at Focus Technologies, Herndon, Va. according to NCCLS protocols (National Committee for Clinical Laboratory Standards, supra).
(§2) To be useful in combination therapy, an EPI needs to substantially reduce the MIC of an antibiotic to within the range of clinical susceptibility. Because many different resistance mechanisms are often present in clinical isolates, including the likelihood of multiple target-based mutations in addition to efflux mutations, the barrier to antibiotic efficacy is much greater. […] Oxacillin and vancomycin MICs were also determined to identify which isolates were methicillin-resistant (S. aureus) and vancomycin-resistant (E. faecalis).

[2] = test system: E. faecalis clinical isolates; test: as above; details: Enterococcus faecalis
Experimental: as §1, §2

S. aureus ATCC 29213 = test: MIC by NCCLS microdilution, antibacterial agents with and without EPI; details: for MIC: Staphylococcus aureus, ATCC29213, antibacterial agent alone, read-out: MIC, No EPI; for MIC in the presence of 4X MEC of EPI, VX-710: VX-710 100 μg/ml; for MIC in the presence of 4X MEC of EPI, VX-853: VX-853 6.25 μg/ml; for MIC in the presence of 4X MEC of EPI, reserpine: reserpine 25 μg/ml
Experimental: 3% sterile laked horse blood (Quad Five, Ryegate, Mont.) was added to assays for E. faecalis and S. Pneumoniae. A final concentration of 1% DMSO was present in all assays. […]
A-106 and C-9 were tested at their respective MECs in combination with a variety of different classes of antibiotics against S. aureus ATCC 29213 (Table 2).

Cc1onc(-c2ccccc2)c1C(=O)N[C@@H]1C(=O)N2[C@@H]1SC(C)(C)[C@@H]2C(=O)O [Oxacillin]
MIC ([1]; S. aureus clinical isolate 1): 16 mg/L
MIC ([1]; S. aureus clinical isolate 2): > 64 mg/L
MIC ([1]; S. aureus clinical isolate 3): 32 mg/L
MIC ([1]; S. aureus clinical isolate 4): > 64 mg/L
MIC ([1]; S. aureus clinical isolate 5): 2 mg/L
MIC ([1]; S. aureus clinical isolate 6): 16 mg/L
MIC ([1]; S. aureus clinical isolate 7): 2 mg/L
MIC ([1]; S. aureus clinical isolate 8): 4 mg/L
MIC ([1]; S. aureus clinical isolate 9): 2 mg/L
MIC ([1]; S. aureus clinical isolate 10): > 64 mg/L
MIC ([1]; S. aureus clinical isolate 11): > 64 mg/L
MIC ([1]; S. aureus clinical isolate 12): 2 mg/L
MIC ([1]; S. aureus clinical isolate 13): > 64 mg/L
MIC ([1]; S. aureus clinical isolate 14): > 64 mg/L
MIC ([1]; S. aureus clinical isolate 15): > 64 mg/L

CN[C@H](CC(C)C)C(=O)N[C@H]1C(=O)N[C@@H](CC(N)=O)C(=O)N[C@H]2C(=O)N[C@H]3C(=O)N[C@H](C(=O)N[C@H](C(=O)O)c4cc(O)cc(O)c4-c4cc3ccc4O)[C@H](O)c3ccc(c(Cl)c3)Oc3cc2cc(c3O[C@@H]2O[C@H](CO)[C@@H](O)[C@H](O)[C@H]2O[C@H]2C[C@](C)(N)[C@H](O)[C@H](C)O2)Oc2ccc(cc2Cl)[C@H]1O [Vancomycin]
MIC ([2]; read-out: MIC, No EPI, E. faecalis clinical isolate 1): 1 mg/L
MIC ([2]; read-out: MIC, No EPI, E. faecalis clinical isolate 2): 4 mg/L
MIC ([2]; read-out: MIC, No EPI, E. faecalis clinical isolate 3): > 256 mg/L
MIC ([2]; read-out: MIC, No EPI, E. faecalis clinical isolate 4): 1 mg/L
MIC ([2]; read-out: MIC, No EPI, E. faecalis clinical isolate 5): 2 mg/L
MIC ([2]; read-out: MIC, No EPI, E. faecalis clinical isolate 6): 2 mg/L
MIC ([2]; read-out: MIC, No EPI, E. faecalis clinical isolate 7): 1 mg/L
MIC ([2]; read-out: MIC, No EPI, E. faecalis clinical isolate 8): 128 mg/L
MIC ([2]; read-out: MIC, No EPI, E. faecalis clinical isolate 9): 1 mg/L
MIC ([2]; read-out: MIC, No EPI, E. faecalis clinical isolate 10): 2 mg/L
MIC ([2]; read-out: MIC, No EPI, E. faecalis clinical isolate 11): 16 mg/L
MIC ([2]; read-out: MIC, No EPI, E. faecalis clinical isolate 12): 4 mg/L
MIC ([2]; read-out: MIC, No EPI, E. faecalis clinical isolate 13): 2 mg/L
MIC ([2]; read-out: MIC, No EPI, E. faecalis clinical isolate 14): 1 mg/L
MIC ([2]; read-out: MIC, No EPI, E. faecalis clinical isolate 15): 4 mg/L
MIC ([2]; read-out: MIC, No EPI, E. faecalis clinical isolate 16): 0.5 mg/L
MIC ([2]; read-out: MIC, No EPI, E. faecalis clinical isolate 17): 4 mg/L
MIC ([2]; read-out: MIC, No EPI, E. faecalis clinical isolate 18): > 256 mg/L
MIC ([2]; read-out: MIC, No EPI, E. faecalis clinical isolate 19): 2 mg/L
MIC ([2]; read-out: MIC, No EPI, E. faecalis clinical isolate 20): 2 mg/L
MIC ([2]; read-out: MIC, No EPI, E. faecalis clinical isolate 21): 1 mg/L
MIC ([2]; read-out: MIC, No EPI, E. faecalis clinical isolate 22): 1 mg/L
MIC ([2]; read-out: MIC, No EPI, E. faecalis clinical isolate 23): 2 mg/L
MIC ([2]; read-out: MIC, No EPI, E. faecalis clinical isolate 24): 1 mg/L
MIC ([2]; read-out: MIC, No EPI, E. faecalis clinical isolate 25): 1 mg/L
MIC ([2]; read-out: MIC, No EPI, E. faecalis clinical isolate 26): > 256 mg/L

CC[C@H]1OC(=O)[C@H](C)[C@@H](O[C@H]2C[C@@](C)(OC)[C@@H](O)[C@H](C)O2)[C@H](C)[C@@H](O[C@@H]2O[C@H](C)C[C@H](N(C)C)[C@H]2O)[C@](C)(O)C[C@@H](C)CN(C)[C@H](C)[C@@H](O)[C@]1(C)O [azithromycin]
MIC (S. aureus ATCC 29213): 1 mg/L
MIC in the presence of 4X MEC of EPI, VX-710 (S. aureus ATCC 29213): 1 mg/L
MIC in the presence of 4X MEC of EPI, VX-853 (S. aureus ATCC 29213): 1 mg/L
MIC in the presence of 4X MEC of EPI, reserpine (S. aureus ATCC 29213): 1 mg/L

CO/N=C(\C(=O)N[C@@H]1C(=O)N2C(C(=O)O)=C(CSc3nc(=O)c(=O)[nH]n3C)CS[C@H]12)c1csc(N)n1 [ceftriaxone]
MIC (S. aureus ATCC 29213): 4 mg/L
MIC in the presence of 4X MEC of EPI, VX-710 (S. aureus ATCC 29213): 4 mg/L
MIC in the presence of 4X MEC of EPI, VX-853 (S. aureus ATCC 29213): 4 mg/L
MIC in the presence of 4X MEC of EPI, reserpine (S. aureus ATCC 29213): 4 mg/L

O=C(N[C@H](CO)[C@H](O)c1ccc([N+](=O)[O-])cc1)C(Cl)Cl [chloramphenicol]
MIC (S. aureus ATCC 29213): 8 mg/L
MIC in the presence of 4X MEC of EPI, VX-710 (S. aureus ATCC 29213): 8 mg/L
MIC in the presence of 4X MEC of EPI, VX-853 (S. aureus ATCC 29213): 8 mg/L
MIC in the presence of 4X MEC of EPI, reserpine (S. aureus ATCC 29213): 8 mg/L
